{"source": "patent US10010560B2", "about": "“Small molecule HSP70 inhibitors” (THE TRUSTEES OF THE UNIVERSITY OF PENNSYLVANIA, priority 2014, dated 2018)", "key": {"[1]": {"tested_on": "ubiquitin", "test": "Western blot for ubiquitin in detergent fractions", "format": "cell-based, human", "details": "451 Lu cells, 24 h, detergent insoluble fraction", "source_text": "(§1) FIGS. 4A-4L illustrate that PET-16 impairs proteostasis. […] There is a general absence of obvious nuclei in PET-16 treated tumor cells. […] FIGS. 4D and 4E are gels of whole-cell extracts (WCE) prepared from human melanoma A875 (D) or 451 Lu (E) cells treated with DMSO, PES or PET-16 that were immunoprecipitated using an anti-HSP70 antibody. The excised band of about 70 kDa shown in the Coomassie gel is HSP70, as confirmed by liquid chromatography—tandem mass spectrometry analysis. FIGS. 4F-4I are western blots of cell lines were treated with DMSO, PES or PET-16 for 24 h and immunoblotted for the indicated proteins. FIG. 4J are western blots of indicated melanomas pretreated with DMSO, PES or PET-16, followed by treatment with IL-6. Cell extracts were immunoblotted for the proteins indicated. Inhibition of IL-6 induced STAT3 and STAT1 phosphorylation by PET-16. FIG. 4K is a western blot analysis indicating altered processing of cathepsin L from the larger precursor form to the smaller mature form in the indicated cells following PET-16 treatment for 24 h. FIG. 4L is a western blot of the human melanoma 451 Lu cells treated with DMSO, PES or PET-16 for 24 h. Cells were harvested in 1% NP40-containing lysis buffer, fractionated into detergent-soluble and detergent-insoluble preparations, and assayed by western blot for ubiquitin. […]"}, "[2]": {"molecular_target": "HSP70 (Homo sapiens, UniProt P0DMV8)", "sequence (P0DMV8 whole entry)": "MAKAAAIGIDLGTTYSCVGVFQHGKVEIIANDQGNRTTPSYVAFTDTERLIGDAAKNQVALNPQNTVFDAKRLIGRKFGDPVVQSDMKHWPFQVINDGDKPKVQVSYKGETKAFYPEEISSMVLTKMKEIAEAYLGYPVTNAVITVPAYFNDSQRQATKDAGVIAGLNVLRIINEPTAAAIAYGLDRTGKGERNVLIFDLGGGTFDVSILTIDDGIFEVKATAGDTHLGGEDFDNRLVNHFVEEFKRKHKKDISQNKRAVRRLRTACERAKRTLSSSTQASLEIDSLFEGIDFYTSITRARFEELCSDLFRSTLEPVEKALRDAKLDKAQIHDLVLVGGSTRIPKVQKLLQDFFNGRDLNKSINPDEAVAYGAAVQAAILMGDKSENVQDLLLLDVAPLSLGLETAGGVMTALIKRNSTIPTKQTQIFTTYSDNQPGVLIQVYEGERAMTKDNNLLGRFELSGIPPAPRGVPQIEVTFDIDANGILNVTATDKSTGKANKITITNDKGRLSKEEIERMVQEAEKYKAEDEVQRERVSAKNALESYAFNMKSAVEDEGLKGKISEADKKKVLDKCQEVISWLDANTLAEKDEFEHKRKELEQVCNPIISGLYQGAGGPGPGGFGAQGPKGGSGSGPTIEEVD", "test": "Immunoprecipitation of HSP70 and co-precipitating proteins", "format": "cell-based", "design": "endogenous in cells; host or cells: A875 and 451 Lu human melanoma cells", "details": "IP-WB, A875 or 451 Lu cells", "source_text": "as §1"}, "[3]": {"tested_on": "LC3", "test": "Western blot for autophagy marker LC3", "format": "cell-based, human", "details": "A875 melanoma cell line", "source_text": "as §1"}, "[4]": {"tested_on": "mouse melanoma cell line B16", "test": "Pulmonary metastatic model, B16 melanoma", "format": "in vivo", "details": "C57BL/6 mice injected with B16", "protocol": "FIGS. 7A-7C illustrate that PET-16 impairs metastasis in a mouse model of melanoma. A well-recognized pulmonary metastatic model was utilized in which immunocompetent, wild-type C57BL/6 mice were injected with the highly metastatic mouse melanoma cell line B16, as indicated. […] FIG. 7A is a summary of the steps entailed in the model. FIG. 7B are photographs of biopsied lungs obtained from the infected mice. FIG. 7C provides a graphical representation of counts of metastatic colonies intermediate gray square represents 0 colonies, lightest gray square represents 1-10 colonies and darkest gray square represents >10 colonies) seen in lungs of vehicle-, PES-Cl- or PET-16-treated mice.\nThe inhibitory effect of PET-16 on metastasis was tested in vivo, a well-recognized pulmonary metastatic model was utilized in which immunocompetent, wild-type C57BL/6 mice were injected with the highly metastatic mouse melanoma cell line B16 (FIG. 7)."}, "[5]": {"tested_on": "E. coli DH5α", "test": "Growth of E. coli DH5α at 43° C.", "format": "cell-based", "protocol": "(§2) FIGS. 2A-2D illustrate the cytotoxicity of PET-16 to human tumor cells and its inhibition on E. coli growth. FIG. 2A is a line graph with data obtained from MTT assays of human melanoma cell lines treated with the indicated concentrations of PES or PET-16 for 72 h. The corresponding cell survival is normalized to vehicle (DMSO) treatment. Average and standard deviation (s.d.) from three independent experiments are shown. FIG. 2B are bar graphs of human melanoma (A875) cells and nontransformed human (IMR90) fibroblasts that were treated with DMSO, 10 μM PES or 10 μM PET-16 for 24 h. […] FIG. 2C is a line graph illustrating the growth of E. coli DH5α treated with different concentrations of PES or PET-16 for 6 h at 43° C. Error bars represent the s.d. of four independent experiments. FIG. 2D is a bar graph illustrating the growth of E. coli DH5α treated with DMSO, 30 μM PET-16 or 30 μM TPP for 6 h at 43° C. Error bars represent the s.d. of four independent experiments.\nFIGS. 9A-9H illustrate that PET-16 binds directly to ADP-bound HSP70 and is cytotoxic to human tumor cells. FIGS. 9A-9C are ITC assays of the interaction of PET-3C with purified human HSP70-ADP (A), human HSP70-ATP (B) and DnaK-ADP (C) proteins. The data are representative of three independent experiments. FIG. 9D is a line graph of an MTT assay of the human melanoma cell line 1205 Lu treated with the indicated concentrations of PET-16 (---) or PET-3C (-) for 72 h. The corresponding cell survival is normalized to the DMSO-treatment. Average and standard deviation (s.d.) from three independent experiments are shown. FIG. 9E is a line graph illustrating the growth of E. coli DH5α strain treated with different concentrations of PET-16 (black) or PET-3C (gray) for 6 h at 43° C. Error bars represent the s.d. of four independent experiments. FIG. 9F is a bar graph illustrating the growth of E. coli DH5α treated with DMSO, 30 μM PET-16, 30 μM PET-3C or 30 μM TPP for 6 h at 43° C. Error bars represent the s.d. of four independent experiments. […]"}, "[6]": {"tested_on": "BRAF(V600E)", "test": "Western blot of client proteins in soluble and detergent-insoluble fractions", "format": "cell-based", "details": "melanoma tumor cells, soluble fraction", "protocol": "PET-16 promotes the loss of HSP90/HSP70 client proteins from the soluble fraction and the accumulation of some of these client proteins in the protein detergent-insoluble cellular fraction. Human melanoma cell lines (451 Lu, 1205 Lu and WM852) and mouse melanoma cell line (Yumm), as indicated, were treated with DMSO, PES or PET-16 for 24 hours. Cells were fractionated into detergent-soluble and detergent-insoluble preparations and assayed by Western blot (WB) analysis for the proteins indicated. […] The expression of many of these proteins is reduced in the soluble cell fractions, and often the abundance increases in the detergent insoluble fractions. This is indicative of loss of function of the client proteins.\nWestern blotting, immunoprecipitations and B-PES pull down assays were performed as described in Leu 2009 and Leu 2011. Preparation of biotin-conjugated PES was described in Leu 2009 and Leu 2011; Balaburski, 2013. Liquid chromatography-tandem mass spectrometry was performed by the Genomics Institute and Abramson Cancer Center Proteomics Core Facility at the Perelman School of Medicine, University of Pennsylvania. Electron microscopy (EM) and EM imaging were performed by The Electron Microscopy Resource Laboratory, Biomedical Research Core Facilities, at the Perelman School of Medicine, University of Pennsylvania."}, "[7]": {"tested_on": "human melanoma (A875) cells", "test": "Viability of A875 melanoma cells versus IMR90 fibroblasts", "format": "cell-based", "details": "10 μM, 24 h, A875 vs IMR90", "protocol": "as §2"}}, "data": [{"molecule": "C(#C[P+](c1ccccc1)(c1ccccc1)c1ccccc1)c1ccccc1.[Br-]", "note": "[PET-16, triphenyl(phenylethynyl)phosphonium bromide]", "values": [{"measurement": "ubiquitinated polypeptides", "setting": "[1]", "value": "accumulation"}, {"measurement": "interactions between HSP70 and client/substrate proteins", "setting": "[2]", "value": "loss of interactions"}, {"measurement": "autophagy marker processed LC3II", "setting": "[3]", "value": "increase"}, {"measurement": "lung metastases", "setting": "[4]", "value": "significantly reduced"}, {"measurement": "E. coli phenotype", "setting": "[5]", "value": "cell filamentation and reduced viability"}, {"measurement": "effect on growth of E. coli", "setting": "[5]; 6 h at 43° C.", "value": "impaired bacterial growth"}, {"measurement": "BRAF(V600E) protein abundance", "setting": "[6]", "value": "reduction"}, {"measurement": "cytotoxicity tumor versus nontransformed cells", "setting": "[7]", "value": "preferentially cytotoxic for tumor cells"}]}]}
